Legend:
A549 = test: MTT assay, cell proliferation; type: cell-based; details: Homo sapiens, 24 h, read-out: IC50, inhibition of cell proliferation
Experimental: (§1) HepG2, HCT116, HeLa and LO2 cell lines were cultured in DMEM containing 10% fetal bovine serum (FBS), 100 IU/mL penicillin and 100 µg/mL streptomycin; A549 and K562 cell lines were cultured in RPMI 1640 medium containing 10% fetal bovine serum (FBS), 100 IU/mL penicillin and 100 µg/mL streptomycin; Human umbilical vein endothelial cells (HUVECs) were cultured on gelatin-coated culture flasks in M-199 medium with 20% fetal bovine serum (FBS), 2 ng/mL VEGF, 10 ng/mL basic FGF, 100 IU/mL penicillin, and 100 μg/mL streptomycin; all of them were obtained from the American Type Culture Collection (ATCC) and all cell lines were incubated in an atmosphere of 5% CO2 at 37 °C.
(§2) Cells were treated with various concentrations of compound in 96-well culture plates for 24 h in final volumes of 200 μL (5 × 10^3 cells/well). Then 20 μL of MTT solution (5 mg/mL) was added to each well, and cells were incubated for an additional 3 h. Then the medium was carefully removed, and precipitates were dissolved in 150 μL of DMSO, shaken mechanically for 30 min, and then absorbance values at a wavelength of 570 nm were taken on a spectrophotometer (Molecular Devices, Sunnyvale, CA, USA). Values were calculated using percentage of growth versus untreated control. The IC50 was defined as the concentration that caused 50% inhibition of cell proliferation, and was calculated by SAS statistical software.

HCT116 = test: MTT assay, cell proliferation; type: cell-based; details: Homo sapiens, HCT-116, 24 h, read-out: IC50, inhibition of cell proliferation
Experimental: as §1, §2

HeLa = test: MTT assay, cell proliferation; type: cell-based; details: Homo sapiens, 24 h, read-out: IC50, inhibition of cell proliferation
Experimental: as §1, §2

HepG2 = test: MTT assay, cell proliferation; type: cell-based; details: Homo sapiens, 24 h, read-out: IC50, inhibition of cell proliferation
Experimental: as §1, §2

K562 = test: MTT assay, cell proliferation; type: cell-based; details: Homo sapiens, 24 h, read-out: IC50, inhibition of cell proliferation
Experimental: as §1, §2

HUVEC = test: MTT assay, cell proliferation; type: cell-based, Human; details: Homo sapiens, 24 h, read-out: IC50, inhibition of cell proliferation
Experimental: Inhibiting the proliferation of ECs is another important strategy for antiangiogenesis. […] As the exposure time of these derivatives was 24 h in the migration assay and 6 h in the tube formation assay, the effect of the incubation for 24 h in the presence of these compounds on HUVECs proliferation was then tested. Cell viability was assessed by the MTT method. We can see from Table 4 that these compounds had different antiproliferative activities.
as §1, §2

LO2 = test: MTT assay, cytotoxicity; type: cell-based; details: Homo sapiens, L02, 24 h, read-out: IC50, inhibition of cell proliferation
Experimental: as §1, §2

[1] = test system: transgenic fli-1: enhanced GFP zebrafish embryos; test: Zebrafish embryo assay: antiangiogenic effects; type: in vivo, zebrafish (Danio rerio); details: zebrafish embryos
Experimental: As stated previously, zebrafish is regarded as a powerful tool in the study of human diseases. […] In this study, all GA derivatives were incubated with the transgenic friend leukemia integration-1 (fli-1): enhanced GFP zebrafish embryos which carried a fli-1 promoter which can drive the expression of GFP in the whole endothelium.
Figure 1 Effects on neovascularization in zebrafish embryos. The transgenic fli-1: enhanced GFP zebrafish embryos in embryo water (0.2 g/L of instant ocean salt in distilled water) incubated with 1 μM of compounds at 6 h postfertilization (hpf) for 24 h. Zebrafish embryos were imaged (Imager.Z1, magnification: left, 40×; right, 100×).
Using transgenic fli-1: enhanced GFP zebrafish embryos, we investigated the effects of all compounds on angiogenesis. […] At about 6 h post fertilization (hpf), the embryos were sorted in the 6-well plate (six embryos/well), removing dead and unhealthy embryos. Then the embryos were treated with the indicated concentrations of compounds which were added into embryo water. After incubation for 24 or 48 h, the embryos were anesthetized using 0.05% 2-phenoxyethanol in embryo water, quantified and photographed.

| Compound | IC50 (A549) [µM] | IC50 (HCT116) [µM] | IC50 (HeLa) [µM] | IC50 (HepG2) [µM] | IC50 (K562) [µM] | IC50 (HUVEC) [µM] | IC50 (LO2) [µM] | antiangiogenic rates ([1]; 1 μM) | inhibition in vivo at 2.5 µM ([1]; Danio rerio, 2.5 μM, vs vehicle (0.05% DMSO), read-out: Anti-angiogenic phenotype) [%] | inhibition in vivo at 10 µM ([1]; Danio rerio, 10 μM, vs vehicle (0.05% DMSO), read-out: Anti-angiogenic phenotype) [%] |
| --- | --- | --- | --- | --- | --- | --- | --- | --- | --- | --- |
| CC(C)=CCCC1(C)C=Cc2c(O)c3c(c(CC=C(C)C)c2O1)OC12C(=CC4CC1C(C)(C)OC2(C/C=C(/C)C(=O)Oc1ccc(C(C)(C)CC(C)(C)C)cc1)C4=O)C3=O (stereo not drawn) [Compound 25, 4-(2,4,4-Trimethylpentan-2-yl)phenyl gambogate] | > 80 | > 80 | > 80 | > 80 | > 80 | > 80 | > 80 |  |  |  |
| CC(C)=CCCC1(C)C=Cc2c(O)c3c(c(CC=C(C)C)c2O1)OC12C(=CC4CC1C(C)(C)OC2(C/C=C(/C)C(=O)Oc1ccc(Br)cc1)C4=O)C3=O (stereo not drawn) [Compound 19, 4-Bromophenyl gambogate] | > 80 | 70.2 ± 3.06 | > 80 | > 80 | > 80 | 68 ± 4 | > 80 |  |  |  |
| COc1ccc(OC(=O)/C(C)=C\CC23OC(C)(C)C4CC(C=C5C(=O)c6c(O)c7c(c(CC=C(C)C)c6OC542)OC(C)(CCC=C(C)C)C=C7)C3=O)cc1 (stereo not drawn) [Compound 13, 4-Methoxyphenyl gambogate] | 66.8 ± 4.59 | 17.5 ± 1.59 | > 80 | 60.5 ± 4.24 | 8.05 ± 0.28 | 27.7 ± 2.77 |  |  |  |  |
| CC(C)=CCCC1(C)C=Cc2c(O)c3c(c(CC=C(C)C)c2O1)OC12C(=CC4CC1C(C)(C)OC2(C/C=C(/C)C(=O)Oc1cccc(C#N)c1)C4=O)C3=O (stereo not drawn) [Compound 12, 3-Cyanophenyl gambogate] | 10.7 ± 0.26 | 5.57 ± 0.26 | 7.1 ± 1.43 | 7.8 ± 0.11 | 1.79 ± 0.08 | 7.58 ± 1.36 | 5.15 ± 1.19 |  |  |  |
| CC(C)=CCCC1(C)C=Cc2c(O)c3c(c(CC=C(C)C)c2O1)OC12C(=CC4CC1C(C)(C)OC2(C/C=C(/C)C(=O)Oc1c(Br)ccc(F)c1F)C4=O)C3=O (stereo not drawn) [Compound 2, 6-Bromo-2,3-difluorophenyl gambogate] | 49.1 ± 5.16 | 45.3 ± 4.2 | 57 ± 0.62 | 41.4 ± 3.52 | 16.1 ± 1.74 | 31.9 ± 1.27 |  |  |  |  |
| COc1ccc(-c2csc(NC(=O)/C(C)=C\CC34OC(C)(C)C5CC(C=C6C(=O)c7c(O)c8c(c(CC=C(C)C)c7OC653)OC(C)(CCC=C(C)C)C=C8)C4=O)n2)cc1 (stereo not drawn) [Compound 31, 4-(4-Methoxyphenyl)thiazol-2-gambogamide] | 61.6 ± 1.73 | 18.9 ± 1.34 | 57.9 ± 2.6 | 49.2 ± 4.31 | 13.7 ± 0.56 | 30.2 ± 2.04 |  | inactive | < 25 | 25 to 50 |
| CC(C)=CCC/C(C)=C/COC(=O)/C(C)=C\CC12OC(C)(C)C3CC(C=C4C(=O)c5c(O)c6c(c(CC=C(C)C)c5OC431)OC(C)(CCC=C(C)C)C=C6)C2=O (stereo not drawn) [Compound 10, Geraniol gambogate] | > 80 | > 80 | > 80 | > 80 | > 80 | > 80 |  |  |  |  |
| C=CCc1ccc(OC(=O)/C(C)=C\CC23OC(C)(C)C4CC(C=C5C(=O)c6c(O)c7c(c(CC=C(C)C)c6OC542)OC(C)(CCC=C(C)C)C=C7)C3=O)c(OC)c1 (stereo not drawn) [Compound 3, 4-Allyl-2-methoxyphenyl gambogate] | 38 ± 3.1 | 18.7 ± 0.97 | 13.1 ± 0.77 | 28.8 ± 2.84 | 8.18 ± 1.22 | 52.7 ± 1.15 |  |  |  |  |
| CC(C)=CCCC1(C)C=Cc2c(O)c3c(c(CC=C(C)C)c2O1)OC12C(=CC4CC1C(C)(C)OC2(C/C=C(/C)C(=O)Oc1ccc(C)c([N+](=O)[O-])c1)C4=O)C3=O (stereo not drawn) [Compound 1, 4-Methyl-3-nitrophenyl gambogate] | 43.5 ± 3.92 | 25.5 ± 1.79 | 32.9 ± 1.69 | 30.8 ± 2.76 | 10.2 ± 0.48 | 45.2 ± 2.64 |  |  |  |  |
| CC(C)=CCCC1(C)C=Cc2c(O)c3c(c(CC=C(C)C)c2O1)OC12C(=CC4CC1C(C)(C)OC2(C/C=C(/C)C(=O)Oc1cccc([N+](=O)[O-])c1)C4=O)C3=O (stereo not drawn) [Compound 8, 3-Nitrophenyl gambogate] | > 80 | 66.4 ± 1.1 | > 80 | > 80 | 17.9 ± 1.38 | 77.5 ± 3.65 |  |  |  |  |

From publication PMC6268492, “Synthesis and Antiangiogenic Activity of Novel Gambogic Acid Derivatives” (Molecules, 2012)
